These results are taken from ChEMBL document CHEMBL3526083, “Prediction of relative in vivo metabolite exposure from in vitro data using two model drugs: dextromethorphan and omeprazole” (Drug Metab Dispos, 2012).

Series [1] addresses T1, UDP-glucuronosyltransferase 1A1 (Homo sapiens, UniProt P22309).
T1 sequence (P22309 whole entry): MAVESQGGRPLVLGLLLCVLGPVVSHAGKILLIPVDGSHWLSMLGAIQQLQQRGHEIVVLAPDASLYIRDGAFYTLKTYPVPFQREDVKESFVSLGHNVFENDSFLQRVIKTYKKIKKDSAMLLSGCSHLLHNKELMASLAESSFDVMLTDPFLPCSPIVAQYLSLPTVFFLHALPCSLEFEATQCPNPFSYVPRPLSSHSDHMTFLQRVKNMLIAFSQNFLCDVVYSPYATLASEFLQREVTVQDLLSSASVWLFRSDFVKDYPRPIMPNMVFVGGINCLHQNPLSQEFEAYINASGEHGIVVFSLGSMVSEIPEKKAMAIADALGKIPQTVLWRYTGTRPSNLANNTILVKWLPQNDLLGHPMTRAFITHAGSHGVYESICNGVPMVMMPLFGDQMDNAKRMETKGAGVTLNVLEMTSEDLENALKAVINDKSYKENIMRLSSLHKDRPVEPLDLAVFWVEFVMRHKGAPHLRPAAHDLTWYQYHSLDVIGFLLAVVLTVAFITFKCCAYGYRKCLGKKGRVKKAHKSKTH
Nature of the series: Drug metabolism assessed as recombinat UGT1A1 (unknown origin) -mediated dextrophan-O-glucuronide formation. In kind it is ADME.

Series [2] concerns Liver microsome. Nature of the series: Drug metabolism in human liver microsomes assessed as 3-hydroxymorphinan formation measured as intrinsic unbound clearance. In kind it is ADME. (In general: Liver microsomes are a subcellular fraction often used to study metabolism.)
The subject of series [3] is Liver microsome. The series can be described thus: Drug metabolism in human liver microsomes assessed as 3-hydroxymorphinan formation. Format: ADME.
In series [4] the test system is Liver microsome. Nature of the series: Drug metabolism in human liver microsomes assessed as dextrophan-O-glucuronide formation measured per mg of microsomal protein in presence of 2% BSA. In kind it is ADME.
In series [5] the target is T2, UDP-glucuronosyltransferase 1A8 (Homo sapiens, UniProt Q9HAW9).
T2 sequence (Q9HAW9 whole entry): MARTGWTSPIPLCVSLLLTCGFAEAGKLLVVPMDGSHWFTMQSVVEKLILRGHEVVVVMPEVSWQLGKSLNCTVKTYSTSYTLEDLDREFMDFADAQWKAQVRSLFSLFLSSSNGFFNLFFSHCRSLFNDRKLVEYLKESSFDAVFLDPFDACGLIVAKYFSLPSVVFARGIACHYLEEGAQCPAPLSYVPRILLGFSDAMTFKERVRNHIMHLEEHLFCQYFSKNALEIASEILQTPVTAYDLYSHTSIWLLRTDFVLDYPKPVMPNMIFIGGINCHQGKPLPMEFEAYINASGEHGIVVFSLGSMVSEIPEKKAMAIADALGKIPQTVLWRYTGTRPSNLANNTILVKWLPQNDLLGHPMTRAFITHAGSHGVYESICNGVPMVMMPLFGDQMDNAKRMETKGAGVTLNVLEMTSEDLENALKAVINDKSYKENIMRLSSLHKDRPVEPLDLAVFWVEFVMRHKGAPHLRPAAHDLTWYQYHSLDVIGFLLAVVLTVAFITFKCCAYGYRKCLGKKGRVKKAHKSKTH
The series can be described thus: Drug metabolism assessed as recombinat UGT1A8 (unknown origin) -mediated dextrophan-O-glucuronide formation. Format: ADME.

The test system of series [6] is Liver microsome. The series can be described thus: Drug metabolism in human liver microsomes assessed as dextrophan-O-glucuronide formation measured as plasma fraction unbound. Format: ADME, cell-free.
Series [7] addresses T3, UDP-glucuronosyltransferase 1A7 (Homo sapiens, UniProt Q9HAW7).
T3 sequence (Q9HAW7 whole entry): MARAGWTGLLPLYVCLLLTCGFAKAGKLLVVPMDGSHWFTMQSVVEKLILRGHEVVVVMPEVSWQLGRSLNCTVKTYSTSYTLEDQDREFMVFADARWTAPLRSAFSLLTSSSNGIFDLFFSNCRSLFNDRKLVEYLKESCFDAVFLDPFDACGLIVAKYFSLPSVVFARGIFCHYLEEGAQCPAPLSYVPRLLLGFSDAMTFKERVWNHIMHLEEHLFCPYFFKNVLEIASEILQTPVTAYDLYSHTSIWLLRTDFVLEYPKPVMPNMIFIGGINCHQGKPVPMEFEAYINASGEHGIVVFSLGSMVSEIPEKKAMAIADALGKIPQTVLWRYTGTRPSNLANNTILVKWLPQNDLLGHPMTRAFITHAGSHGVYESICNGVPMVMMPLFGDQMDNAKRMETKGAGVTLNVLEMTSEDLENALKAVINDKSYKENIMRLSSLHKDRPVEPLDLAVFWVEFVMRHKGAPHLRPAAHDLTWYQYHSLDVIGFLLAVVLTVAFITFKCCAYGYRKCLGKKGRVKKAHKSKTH
Nature of the series: Drug metabolism assessed as recombinat UGT1A7 (unknown origin) -mediated dextrophan-O-glucuronide formation. In kind it is ADME.

The subject of series [8] is Liver microsome. Nature of the series: Drug metabolism in human liver microsomes assessed as 3-hydroxymorphinan formation measured as plasma fraction unbound. In kind it is ADME, cell-free.
For series [9], the system named is Liver microsome. Nature of the series: Drug metabolism in human liver microsomes assessed as dextrophan-O-glucuronide formation measured as microsomal fraction unbound. In kind it is ADME.
In series [10] the target is T4, UDP-glucuronosyltransferase 1A10 (Homo sapiens, UniProt Q9HAW8).
T4 sequence (Q9HAW8 whole entry): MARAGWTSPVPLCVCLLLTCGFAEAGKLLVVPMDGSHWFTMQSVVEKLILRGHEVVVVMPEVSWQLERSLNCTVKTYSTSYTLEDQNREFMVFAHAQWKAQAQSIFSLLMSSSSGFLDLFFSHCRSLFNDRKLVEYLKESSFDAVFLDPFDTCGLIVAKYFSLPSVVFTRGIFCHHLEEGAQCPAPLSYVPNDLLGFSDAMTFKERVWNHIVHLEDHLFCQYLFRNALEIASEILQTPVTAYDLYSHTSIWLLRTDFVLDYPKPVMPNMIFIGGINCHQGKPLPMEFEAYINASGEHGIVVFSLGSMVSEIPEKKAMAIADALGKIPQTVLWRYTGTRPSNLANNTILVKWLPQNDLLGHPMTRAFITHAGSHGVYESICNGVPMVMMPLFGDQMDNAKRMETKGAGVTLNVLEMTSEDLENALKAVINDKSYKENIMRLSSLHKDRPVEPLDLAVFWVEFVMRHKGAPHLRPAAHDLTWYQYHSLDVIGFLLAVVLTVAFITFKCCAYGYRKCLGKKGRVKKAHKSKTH
The series can be described thus: Drug metabolism assessed as recombinat UGT1A10 (unknown origin) -mediated dextrophan-O-glucuronide formation. Format: ADME.

In general, Km refers to the substrate concentration at which the rate is half of its maximum. What is called Vmax is the rate approached at saturating substrate. As to `CN1CC[C@@]23CCCC[C@@H]2[C@@H]1Cc1ccc(O)cc13` [DEXTRORPHAN], the Drug metabolism result in series [1], in series [5], in [7] and in [10] was “metabolite_not_detected” in each case. The CL free in the series on Liver microsome [2] was found to be 0.95 µL/min/mg. Further, in the series on Liver microsome [3], the Michaelis-Menten constant (Km) turned out to be 910 µM. Further, in the series with Liver microsome [4], the Vmax was 2.3 nmol/min. The figures for the Fu with Liver microsome [6], in the series with Liver microsome [8] and with Liver microsome [9] were 0.55, 0.55 and 1, respectively.
